A compilation of properties of binary mixtures (doi:10.1021/ie501956x)

Assay: xn = mol fraction of the nth substance listed
Settings: 101 kPa

CC(=O)[O-].CC[n+]1ccn(C)c1 + CCO
viscosity [mPa·s]
Settings | x2 = 0 | x2 = 0.1 | x2 = 0.201 | x2 = 0.2999 | x2 = 0.4002 | x2 = 0.5001 | x2 = 0.6 | x2 = 0.7 | x2 = 0.8 | x2 = 0.9
278.15 K | 690 | 462 | – | 149.8 | 86.7 | 44.6 | 23.61 | 12.96 | 6.55 | –
288.15 K | – | – | 130.8 | 81.5 | 49.1 | 28.97 | 16.59 | 9.3 | – | 2.751
298.15 K | 139 | 107.7 | 73.3 | 49.2 | – | – | 12.2 | 7.2 | 4.145 | 2.264
308.15 K | 77.3 | 62.8 | 45.4 | – | 21.86 | 14.48 | – | 5.71 | – | 1.885
318.15 K | 47.4 | – | – | – | – | 10.91 | – | 4.64 | 2.829 | –
328.15 K | 31.3 | 26.89 | 21 | 15.99 | 11.82 | 8.49 | 5.84 | – | 2.391 | 1.355
338.15 K | – | 19.14 | 15.4 | 12.05 | 9.18 | 6.77 | 4.79 | 3.218 | – | 1.165

CCO + CC(=O)[O-].CC[n+]1ccn(C)c1
x1 = 1
Settings | viscosity [mPa·s]
278.15 K | 1.582
288.15 K | 1.31
298.15 K | 1.081
308.15 K | 0.899
328.15 K | 0.638
